Assay results: patent US4065619A, “7-(α-Sulfoacylamido)cephalosporins” (Takeda Chemical Industries, Ltd., priority 1971, dated 1977)
In brackets after ≈: the same amount, converted by molar mass.

Tests used:
Assay type in all cases: cell-based
[1] = test system: Pseudomonas aeruginosa (Pd 12); assay: Minimum inhibitory concentration, Pseudomonas aeruginosa (Pd 12)
[2] = test system: Pseudomonas aeruginosa (NCTC 10490); assay: Minimum inhibitory concentration, Pseudomonas aeruginosa (NCTC 10490); conditions: NCTC10490
[3] = test system: Staphylococcus aureus (penicillin G resistant); assay: Minimum inhibitory concentration, Staphylococcus aureus (penicillin G resistant)
[4] = test system: Pseudomonas aeruginosa (Pd 1); assay: Minimum inhibitory concentration, Pseudomonas aeruginosa (Pd 1)
[5] = test system: Pseudomonas aeruginosa (T-3); assay: Minimum inhibitory concentration, Pseudomonas aeruginosa (T-3)
[6] = test system: Pseudomonas aeruginosa (Pd 13); assay: Minimum inhibitory concentration, Pseudomonas aeruginosa (Pd 13)
[7] = test system: Staphylococcus aureus (209P); assay: Minimum inhibitory concentration, Staphylococcus aureus 209P
[8] = test system: Pseudomonas aeruginosa (NCTC); assay: Minimum inhibitory concentration, Pseudomonas aeruginosa (NCTC)
[9] = test system: Staphylococcus aureus (No. 87, penicillin G resistant); assay: Minimum inhibitory concentration, Staphylococcus aureus (No. 87, penicillin G resistant)
[10] = test system: Pseudomonas aeruginosa (10490); assay: Minimum inhibitory concentration, Pseudomonas aeruginosa (10490)
Pseudomonas aeruginosa = assay: Minimum inhibitory concentration, Pseudomonas aeruginosa (strain not given)

Structure (SMILES): O=C([O-])C1=C(C[n+]2cccc3ccccc32)CS[C@@H]2[C@H](NC(=O)C(c3ccccc3)S(=O)(=O)O)C(=O)N12 (some centres unmarked)
- MIC [1]: 5 µg/mL (≈ 9.27 µM)

Structure (SMILES): O=C([O-])C1=C(C[n+]2cccc(C(=O)O)c2)CS[C@@H]2[C@H](NC(=O)C(c3ccccc3)S(=O)(=O)O)C(=O)N12 (some centres unmarked)
- MIC [1]: 5 µg/mL (≈ 9.37 µM)

Structure (SMILES): NNC(=O)c1cc[n+](CC2=C(C(=O)[O-])N3C(=O)[C@@H](NC(=O)C(c4ccccc4)S(=O)(=O)O)[C@H]3SC2)cc1 (some centres unmarked)
- MIC [1]: 10 µg/mL (≈ 18.3 µM)

Structure (SMILES): NC(=O)c1ccc[n+](CC2=C(C(=O)[O-])N3C(=O)[C@@H](NC(=O)C(c4ccccc4)S(=O)(=O)O)[C@H]3SC2)c1 (some centres unmarked)
- MIC [1]: 1 µg/mL (≈ 1.88 µM)

Structure (SMILES): O=C([O-])C1=C(C[n+]2ccc3ccccc3c2)CS[C@@H]2[C@H](NC(=O)C(c3ccccc3)S(=O)(=O)O)C(=O)N12 (some centres unmarked)
- MIC [1]: 5 µg/mL (≈ 9.27 µM)

Structure (SMILES): O=C([O-])C1=C(C[n+]2ccccc2)CS[C@@H]2[C@H](NC(=O)C(c3ccccc3)S(=O)(=O)O)C(=O)N12 (some centres unmarked) [Example 1]
- MIC [2]: 1 µg/mL (≈ 2.04 µM)
- MIC [3]: 2 µg/mL (≈ 4.09 µM)
- MIC [4]: 2 µg/mL (≈ 4.09 µM)
- MIC [5]: 5 µg/mL (≈ 10.2 µM)
- MIC [6]: 5 µg/mL (≈ 10.2 µM)
- MIC [7]: 1 µg/mL (≈ 2.04 µM)
- MIC [1]: 10 µg/mL (≈ 20.4 µM)

Structure (SMILES): NC(=O)c1cc[n+](CC2=C(C(=O)[O-])N3C(=O)[C@@H](NC(=O)C(c4ccccc4)S(=O)(=O)O)[C@H]3SC2)cc1 (stereo partly drawn) [Example 3, sodium N-[7-(α-sulfophenylacetamido)ceph-3-em-3-ylmethyl]-4'-carbamoyl-pyridinium-4-carboxylate]
- MIC [8]: 0.5 µg/mL
- MIC [4]: 1 µg/mL

Structure (SMILES): Cc1cccc[n+]1CC1=C(C(=O)[O-])N2C(=O)[C@@H](NC(=O)C(c3ccccc3)S(=O)(=O)O)[C@H]2SC1 (stereo partly drawn) [Example 5, sodium N-[7-(α-sulfophenylacetamido)-ceph-3-em-3-ylmethyl]-2'-methylpyridinium-4-carboxylate]
- MIC [2]: 2 µg/mL
- MIC [4]: 3 µg/mL

Structure (SMILES): CCCCC(C(=O)NC1C(=O)N2C(C(=O)[O-])=C(C[n+]3ccccc3)CSC12)S(=O)(=O)O (centres unmarked) [Example 7]
- MIC [9]: 2 µg/mL (≈ 4.26 µM)
- MIC [10]: 2 µg/mL (≈ 4.26 µM)

Structure (SMILES): Nc1ccc(C(C(=O)NC2C(=O)N3C(C(=O)[O-])=C(C[n+]4ccccc4)CSC23)S(=O)(=O)O)cc1 (stereo not drawn) [Example 9, sodium 7-[α-sulfo-α-(p-aminophenyl)acctamido]-3-(pyridiniummethyl)ceph-3-em-4-carboxylate]
- MIC (Pseudomonas aeruginosa): 5 µg/mL
- MIC [7]: 5 µg/mL

Structure (SMILES): O=C([O-])C1=C(C[n+]2ccccc2)CS[C@@H]2[C@H](NC(=O)C(c3ccsc3)S(=O)(=O)O)C(=O)N12 (some centres unmarked) [Example 13]
- MIC [2]: 1 µg/mL (≈ 2.02 µM)
- MIC [4]: 2 µg/mL (≈ 4.04 µM)

Structure (SMILES): NC(=O)c1cc[n+](CC2=C(C(=O)[O-])N3C(=O)[C@@H](NC(=O)C(c4ccccc4)S(=O)(=O)O)[C@H]3SC2)cc1 (some centres unmarked) [drawing 13]
- MIC [1]: 0.5 µg/mL (≈ 0.939 µM)
